Reference: PubChem BioAssay AID749 (The Scripps Research Institute Molecular Screening Center, 2007)
The source made the active and inactive calls.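 How the source made its calls: active means IC50 at or below 10 micromolar; inactive means IC50 above 10 micromolar.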

molecular target: 5-hydroxytryptamine receptor 1E (Homo sapiens) (UniProt P28566); experiment: blockade of human 5HT1E serotonin receptor – cell-based, dose response (AID 749); conditions: CHO 5-HT1E Ga15 NFAT-BLA reporter, FRET
Sequence (P28566 whole entry, looked up): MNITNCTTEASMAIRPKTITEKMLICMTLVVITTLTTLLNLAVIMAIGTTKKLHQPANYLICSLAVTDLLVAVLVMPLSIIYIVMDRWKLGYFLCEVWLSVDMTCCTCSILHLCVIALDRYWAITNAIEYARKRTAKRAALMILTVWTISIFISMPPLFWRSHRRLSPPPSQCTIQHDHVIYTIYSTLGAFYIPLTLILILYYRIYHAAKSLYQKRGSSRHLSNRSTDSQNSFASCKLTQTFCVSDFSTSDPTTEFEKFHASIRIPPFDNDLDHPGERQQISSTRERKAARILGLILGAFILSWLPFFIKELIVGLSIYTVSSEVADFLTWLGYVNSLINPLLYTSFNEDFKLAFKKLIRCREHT

Row | Structure (SMILES) | IC50
1 | COc1cc2c(cc1OC)C1=C(C#N)CC/C(=N\S(=O)(=O)c3ccccc3)N1CC2 | > 50 µM (inactive)
2 | O=C(Nc1ccc(N2CCOCC2)cc1)Nc1ccc2nc(-c3ccco3)c(-c3ccco3)nc2c1 | > 17.2 µM (inactive)
3 | CS(=O)(=O)c1nc(-c2ccco2)cc(C(F)(F)F)n1 | 2.26 µM
4 | COC(=O)/C(=C1/Oc2cc(C)oc(=O)c2S1)C(F)(F)F | 1.86 µM
5 | CCC(NC(=O)Nc1nnc(C(F)(F)F)s1)(C(F)(F)F)C(F)(F)F | inactive
6 | COc1ccc(-n2nnnc2S(=O)(=O)CC(=O)N2CCCCC2)cc1 | 2.61 µM
7 | COc1ccc(C2N(c3ccc(F)cc3)C(=O)C3CCCN32)cc1 (configuration not stated) | > 38.2 µM (inactive)
8 | COc1cccc(N2CCN(c3ncnc4c3[nH]c3ccc(F)cc34)CC2C)c1 (configuration not stated) | 1.82 µM
9 | COc1ccc(N2C(=O)CC(NCc3ccncc3)C2=O)cc1 (configuration not stated) | > 50 µM (inactive)
10 | O=S1(=O)C=C(Sc2nnc(-c3ccccc3)o2)c2ccccc21 | 1.04 µM
11 | CCCOc1ccc2nc(NC(=O)OC)[nH]c2c1 | > 50 µM (inactive)
12 | CC(=O)Nc1cc(OC(C)=O)c2nonc2c1OC(C)=O | 2.1 µM
13 | CCn1c(=O)c(C(=O)Nc2nc3ccccc3[nH]2)c(O)c2ccccc21 | inactive
14 | O=C1C2C3C=CC(CO)(O3)C2C(=O)N1c1ccc(-c2ccccc2)cc1 (configuration not stated) | 4.91 µM
15 | CSc1ccccc1N=CC1=C(O)CC(C)(C)CC1=O | 2.35 µM
16 | CC(=O)Oc1ccc(N2C(=O)C3C(C2=O)C2(C)C=CC3(C)O2)cc1 (configuration not stated) | 2.62 µM
17 | CS(=O)(=O)c1nc(-c2ccccc2)cc(C(F)(F)F)n1 | 2.13 µM
18 | Cn1c(-c2c(N)n(C3CCCC3)c3nc4ccccc4nc23)nc2ccccc21 | 3.64 µM
19 | CCOc1ccc(C2=Nn3c(nnc3-c3ccccc3OC)SC2)cc1 | > 50 µM (inactive)
20 | COc1ccccc1-c1nnc2n1N=C(c1ccc(O)c(O)c1)CS2 | > 50 µM (inactive)
21 | Cc1ccc(-n2nc3c([n+]2[O-])CCc2c-3no[n+]2[O-])cc1 | 3.9 µM

Row | Structure (SMILES) | IC50
22 | COC(=O)Nc1nc2ccc(Sc3ccccc3)cc2[nH]1 | > 50 µM (inactive)
23 | CCn1nc(-c2ccccc2)nc2c(=O)n(C)c(=O)nc1-2 | > 50 µM (inactive)
24 | CCN(CC)c1ccc2c(Cl)c(Br)c(=O)oc2c1 | 0.999 µM
25 | N#C/C(=C/c1ccc(N2CCCCCC2)o1)c1ccc(F)cc1 | 5.2 µM
26 | CCCOCCOC(=O)c1[nH]c2c(c1C)C(=O)CC(c1cc(OC)ccc1OC)C2 (configuration not stated) | > 50 µM (inactive)
27 | CCn1nc(-c2cccs2)nc2c(=O)n(C)c(=O)nc1-2 | 0.629 µM
28 | CCCc1nnc2n1N=C(c1ccc(OC)c(OC)c1)CS2 | > 50 µM (inactive)
29 | Cc1ccc(S(=O)(=O)Nc2cccc3ncccc23)s1 | 2.91 µM
30 | CN(C)c1nc(OCCNC(=O)COc2ccc(Cl)cc2Cl)nc(N2CCCCC2)n1 | > 50 µM (inactive)
31 | Clc1ccc(-n2nnnc2Sc2ncnc3sccc23)cc1 | 3.5 µM
32 | N#CCCS(=O)(=O)c1nnnn1-c1ccccc1 | 2.79 µM
33 | COc1cccc(N2CCN(c3ncnc4c3cnn4-c3ccc(C)cc3C)CC2)c1 | 6.99 µM
34 | COCCOC(=O)c1[nH]c2c(c1C)C(=O)CC(c1ccccc1)C2 (configuration not stated) | > 50 µM (inactive)
35 | COc1cccc(N2CCN(c3ncnc4c3[nH]c3ccccc34)CC2C)c1 (configuration not stated) | 8.24 µM
36 | COc1cc2c(cc1OC)-c1cc(N3CCCc4ccccc43)nc(=O)n1CC2 | > 50 µM (inactive)
37 | CCOc1cccc(-c2nnc3n2N=C(c2cc(OC)ccc2OC)CS3)c1 | > 32.7 µM (inactive)
38 | COc1ccc(-c2cc(C(F)(F)F)nc(S(C)(=O)=O)n2)cc1OC | 2.91 µM
39 | CS(=O)(=O)c1nc(-c2cccs2)cc(C(F)(F)F)n1 | 1.93 µM
40 | O=C(Nc1ccc(-c2nc3ncccc3o2)cc1)c1ccc(Br)o1 | > 50 µM (inactive)
41 | COc1cc(NS(=O)(=O)c2ccc(C)cc2)c2ncccc2c1 | 3.75 µM
42 | CC(C)=CCC(C)(C)CNC(=O)NC1CCCCC1 | > 50 µM (inactive)
